Several values for one entry are separate records, joined by “and”; a condition that tells them apart may be missing. Equal values may be shown once. Read-outs that look alike come from different tables or passages of the source.
Key:
[1] = biological target: T1, NADPH-cytochrome P450 oxidoreductase (CYPOR) (Homo sapiens, UniProt P16435); experiment: CYPOR (cytochrome c reductase) activity
T1 sequence (P16435 1-677): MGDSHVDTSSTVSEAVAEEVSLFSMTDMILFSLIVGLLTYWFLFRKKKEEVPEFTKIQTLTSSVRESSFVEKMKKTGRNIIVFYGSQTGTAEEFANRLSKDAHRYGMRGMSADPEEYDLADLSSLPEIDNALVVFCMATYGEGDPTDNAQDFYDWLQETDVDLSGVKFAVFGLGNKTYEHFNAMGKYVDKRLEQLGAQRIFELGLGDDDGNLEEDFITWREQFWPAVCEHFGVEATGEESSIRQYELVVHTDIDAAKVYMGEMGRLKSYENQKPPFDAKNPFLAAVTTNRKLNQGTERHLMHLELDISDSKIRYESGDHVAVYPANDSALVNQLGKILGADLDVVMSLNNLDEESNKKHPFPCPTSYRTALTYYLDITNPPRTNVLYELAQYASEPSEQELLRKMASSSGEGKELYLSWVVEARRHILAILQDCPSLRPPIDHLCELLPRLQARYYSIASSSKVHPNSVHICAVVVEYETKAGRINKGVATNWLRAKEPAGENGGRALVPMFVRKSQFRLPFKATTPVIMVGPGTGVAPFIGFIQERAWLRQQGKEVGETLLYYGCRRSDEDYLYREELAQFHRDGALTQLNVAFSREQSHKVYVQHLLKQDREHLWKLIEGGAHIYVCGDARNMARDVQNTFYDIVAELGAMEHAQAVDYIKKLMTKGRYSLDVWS
Protocol: The incubations contained 120 μl of Sucrose Buffer and 30 μl of PBS (8.1 mM Na2HPO4, 1.1 mM KH2PO4, 138 mM NaCl and 2.7 mM KCl, pH 7.4) introduced with IgG or BSA.

A549 cells = experiment: NO consumption (NO metabolism) by A549 cells; assay type: cell-based, human; conditions: for Inhibition of NO metabolic activity, A549: porphyrin 100 μM; for activity at 20 µM: agent 20 μM
Source text: . The results are show in Table II.

[2] = system: microsomal NO metabolism (Caco-2 microsomes); conditions: for IC50: read-out: IC50, microsomal NO metabolism
Protocol: NO metabolism by cell fractions was assayed in 100 mM Na-Hepes, pH 7.8, 0.25 M sucrose, 1 mM EDTA and 1 mM EGTA (Sucrose Buffer) containing 15 μM Cu,ZnSOD and 100 μM NADPH. Cell fractions were added with a 50 μl Hamilton syringe to give a total of 100-750 μg protein. For determination of O2 dependence of microsomal NO metabolism, the 2 ml reaction was sparged with N2 for 10 minutes to remove O2, and O2 was depleted from microsomal membranes by stirring membranes under a stream of N2 in a rubber septum-sealed tube on ice. Alternatively, residual O2 was removed by incubating the reaction mix with 16 units glucose oxidase, 1 mM glucose and 260 units catalase for 5 minutes prior to adding NO and microsomes. O2 was added from O2 saturated buffer to achieve various O2 concentrations.
Data represent the average of two or more two independent trials.
NO consumption by Caco-2 microsomes was assayed as previously described.

heme oxygenase = conditions: cited from earlier work
S. cerevisiae = experiment: NO consumption (NOD) activity within S. cerevisiae; assay type: cell-based, Saccharomyces cerevisiae; conditions: 0 μM to about 20 μM miconazole
Source text: Error bars represent the standard deviation of the average of three independent trials.

[3] = system: S. cerevisiae parental strain BY4742; experiment: Growth of S. cerevisiae under NO atmosphere; assay type: cell-based, Saccharomyces cerevisiae; conditions: 5 μM miconazole, 960 ppm NO, 21% O2
Protocol: At the time indicated by the arrow, cultures were exposed to an atmosphere containing 960 ppm NO (<2 μM NO in solution) in a 21% O2/N2 balance (lines 2 and 4) or were maintained under an atmosphere of 21% O2 balanced with N2 (lines 1 and 3).
At the time indicated by the arrow, cultures were either maintained fewer than 21% O2 balanced with N2 (lines 1 and 3) or were exposed to 960 ppm NO in the 21% O2/N2-balanced atmosphere (lines 2 and 4). Cultures were grown and exposed to gases.

Caco-2 cells [4] = experiment: NO consumption (NO metabolism) by Caco-2 cells; conditions: for % Activity, Caco-2: agent 100 μM, 15 min incubation, 100% = 25.4±1.4 nmol NO per minute per 107 cells
Protocol: (§1) Initial rates of NO consumption were measured at 1 μM NO unless otherwise stated, and all rates were corrected for background rates of NO decomposition. A milliunit of activity is defined as the amount metabolizing 1 nanomol NO per min. […] Rotenone (0.5 μM) was included in CO inhibition assays to block respiration and O2 depletion. […] Cell permeabilization was monitored by the loss of NO metabolic activity.
(§2) Error bars represent the SD of three independent trials.
(§3) In addition to cyanide and CO, heme-binding imidazoles, a panel of substrate-inhibitors of cytochrome P450s, inhibitors of the NO-binding heme oxygenases, and free radical scavengers were surveyed for effects on NO metabolism by Caco-2 and A549 cells. All agents were used at concentrations showing minimal cytotoxicity as defined by <5% decrease in trypan blue exclusion following 15 min exposure (data not shown). Caco-2 and A549 cells were grown, harvested and assayed for NO consumption activity following a 15 min incubation in 2 ml DPBS containing 5 mM glucose and 100 μg/ml cycloheximide with the indicated agent as previously described. Data represent the mean ±SD of three independent exposures.

Caco-2 cells [5] = system: Caco-2 cells
Protocol: as §1, §2, §3

[6] = biological target: T2, A. eutrophus flavohemoglobin (Cupriavidus necator, UniProt P39662); experiment: biochemical; conditions: Apparent Ki
Source text: (§4) The specific activities of the E. coli, A. eutrophus and S. cerevisiae NOD were 185, 90 and 105 NO heme^−1 s^−1, respectively.

[7] = biological target: T2, A. eutrophus flavohemoglobin
Source text: as §4

[8] = biological target: T3, E. coli flavohemoglobin (NOD) (Escherichia coli, UniProt P24232); experiment: biochemical
Source text: as §4

[9] = biological target: S. cerevisiae flavohemoglobin (Saccharomyces cerevisiae, UniProt P39676); experiment: biochemical
Source text: as §4

[10] = biological target: T3, E. coli flavohemoglobin (NOD)
Source text: as §4

flavohemoglobins = experiment: CO binding to ferrous hemes of flavohemoglobins; conditions: read-out: dissociation equilibrium constants, ferrous hemes of flavohemoglobins
flavohemoglobins (NOD) = experiment: CO inhibition of flavohemoglobin NOD activities; assay type: biochemical; conditions: read-out: Ki, competitive inhibition of NOD activities with respect to O2
[11] = Homo sapiens, A549, 0.25 h, 15 min incubation

T2 sequence (P39662 whole entry): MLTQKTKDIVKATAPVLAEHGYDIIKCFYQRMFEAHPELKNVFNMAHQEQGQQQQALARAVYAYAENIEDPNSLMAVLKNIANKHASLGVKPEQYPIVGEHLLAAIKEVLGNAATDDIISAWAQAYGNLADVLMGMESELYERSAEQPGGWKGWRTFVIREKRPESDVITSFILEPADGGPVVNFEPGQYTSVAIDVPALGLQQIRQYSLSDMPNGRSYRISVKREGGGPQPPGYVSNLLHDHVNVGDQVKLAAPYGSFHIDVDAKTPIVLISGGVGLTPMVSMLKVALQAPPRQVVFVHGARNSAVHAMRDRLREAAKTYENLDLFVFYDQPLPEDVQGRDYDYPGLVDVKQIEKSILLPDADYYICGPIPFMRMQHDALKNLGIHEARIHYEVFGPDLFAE
T3 sequence (P24232 whole entry): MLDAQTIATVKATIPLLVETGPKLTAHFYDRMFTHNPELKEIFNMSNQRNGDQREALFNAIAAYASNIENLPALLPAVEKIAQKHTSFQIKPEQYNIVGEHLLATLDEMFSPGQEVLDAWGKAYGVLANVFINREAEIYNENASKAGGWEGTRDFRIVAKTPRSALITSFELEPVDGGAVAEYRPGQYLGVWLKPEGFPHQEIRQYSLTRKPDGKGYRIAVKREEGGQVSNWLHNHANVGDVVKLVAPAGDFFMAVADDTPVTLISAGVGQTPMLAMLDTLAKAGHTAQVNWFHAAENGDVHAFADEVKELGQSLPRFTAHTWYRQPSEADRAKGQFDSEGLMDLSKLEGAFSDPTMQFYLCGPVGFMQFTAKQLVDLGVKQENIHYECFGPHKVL
S. cerevisiae flavohemoglobin, sequence (P39676 whole entry): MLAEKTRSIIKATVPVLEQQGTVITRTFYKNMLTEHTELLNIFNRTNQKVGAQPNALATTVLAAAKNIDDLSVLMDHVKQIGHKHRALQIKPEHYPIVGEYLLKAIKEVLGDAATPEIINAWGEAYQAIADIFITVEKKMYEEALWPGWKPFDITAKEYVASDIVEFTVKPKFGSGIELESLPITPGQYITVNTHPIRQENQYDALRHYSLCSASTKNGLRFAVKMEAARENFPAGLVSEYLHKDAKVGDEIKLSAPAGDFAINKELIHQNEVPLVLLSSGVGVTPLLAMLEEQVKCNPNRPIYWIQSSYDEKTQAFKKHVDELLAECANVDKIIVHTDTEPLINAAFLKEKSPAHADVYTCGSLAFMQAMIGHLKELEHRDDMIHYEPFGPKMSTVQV

Compound: C=CC1=C(C)c2cc3[n-]c(cc4[n-]c(cc5nc(cc1n2)C(C)=C5C=C)c(C)c4CCC(=O)O)c(CCC(=O)O)c3C.[Zn+2] [Zn2+-protoporphyrin, Zn(II)-protoporphyrin IX]
- Effect on cytochrome c reduction by microsomal membranes and purified CYPOR [1]: progressive inhibition of cytochrome c reduction
- Inhibition of NO metabolic activity, A549 (A549 cells): about 40%
- Effect of porphyrins on microsomal NO metabolism [2]: inhibited microsomal NO metabolism

Compound: Sn(IV)-protoporphyrin IX [Sn4+-protoporphyrin]
- Inhibition of NO metabolic activity, A549 (A549 cells): no effect
- Ki (heme oxygenase): < 0.1 µM

Compound: Clc1ccc(COC(Cn2ccnc2)c2ccc(Cl)cc2Cl)c(Cl)c1 (stereo not drawn) [miconazole]
- Effect on NOD activity in S. cerevisiae (S. cerevisiae): inhibition of NOD activity
- Effect on growth of S. cerevisiae together with NO [3]: synergistically inhibited growth of S. cerevisiae
- activity at 20 µM (A549 cells; [11]): 38.2 ± 5.9%
- % Activity, microsomal NO metabolism ([2]; 100 µM): 17.0 ± 0.0%
- IC50 ([2]; Caco-2 microsomes): 20 µM

Compound: C=CCSCC=C [diallyl sulfide]
- % Activity, Caco-2 (Caco-2 cells [4]): 98.1 ± 1.7%

Compound: CC(=O)N1CCN(c2ccc(OCC3COC(Cn4ccnc4)(c4ccc(Cl)cc4Cl)O3)cc2)CC1 (stereo not drawn) [ketoconazole]
- % Activity, Caco-2 (Caco-2 cells [5]): 22.3 ± 4.1%
- Ki ([6]; first (major) phase): 0.7 µM
- Ki ([6]; second (minor) phase): 25 µM
- Fraction inhibited as percentage of total activity, first (major) phase ([7]; belongs to the first-phase Ki): (˜75%)
- Fraction inhibited as percentage of total activity, second (minor) phase ([7]; belongs to the second-phase Ki): (˜25%)
- Ki [8]: 5 µM
- Ki [9]: > 100 µM
- % Activity, microsomal NO metabolism ([2]; 100 µM): 25.9 ± 2.6%
- IC50 [2]: 10 µM

Compound: C=CCS[S+]([O-])CC=C (stereo not drawn) [Allicin, diallyl thiosulfinate]
- Effect on isolated E. coli NOD [10]: inactivates the isolated E. coli NOD

Compound: c1ccc2c(c1)[I+]c1ccccc1-2 [DPI, Diphenyleneiodonium]
- Loss of microsomal NO metabolic activity [2]: Seventy-five percent

Compound: C=CC1=C(C)c2cc3[nH]c(cc4nc(cc5[nH]c(cc1n2)c(C)c5CCC(=O)O)C(CCC(=O)O)=C4C)c(C)c3C=C [protoporphyrin, Protoporphyrin IX]
- Effect on cytochrome c reduction by microsomal membranes and purified CYPOR ([1]; 20 μM, data not shown): progressive inhibition of cytochrome c reduction
- Effect of porphyrins on microsomal NO metabolism [2]: inhibited NO metabolism to a significant (p<0.05), albeit lesser, extent

Compound: O=c1c(O)c(-c2ccc(O)c(O)c2)oc2cc(O)cc(O)c12 [quercetin]
- % Activity, microsomal NO metabolism ([2]; inhibitor 100 μM): 84.1 ± 4.4%

Compound: [C-]#[O+] [CO, carbon monoxide]
- Inhibition of NO metabolism by CO, cells (Caco-2 cells [4]; CO:O2 ratio 0.4): about 75%
- Ki (Caco-2 cells [4]; read-out: Ki(CO), competitive inhibition of cellular NO metabolism, 5 μM CO, 12.5 μM O2, competitive with O2): ~3 µM and 3 µM
- Kd (flavohemoglobins): < 0.7 µM
- Ki (flavohemoglobins (NOD)): ~1 µM
- Inhibition of microsomal NO consumption ([2]; 10 μM CO, 20 μM O2, 1 μM NO): > 50%
- Inhibition of NO metabolism by CO, microsomes ([2]; CO:O2 ratio 0.75): about 75%

Compound: COC(=O)[C@@H](N)CCCNC(=N)N[N+](=O)[O-] [L-NAME, N ω-nitro-L-arginine methyl ester]
- activity at 1000 µM (A549 cells; Homo sapiens, A549, 0.25 h, agent 1 mM, 15 min incubation): 101 ± 2.9%
- % Activity, microsomal NO metabolism ([2]; inhibitor 1 mM): 96.7 ± 6.0%

Compound: Nc1ccc(S(=O)(=O)Nc2ccnn2-c2ccccc2)cc1 [sulfaphenazole]
- % Activity, Caco-2 (Caco-2 cells [4]): 97.1 ± 3.0%

Compound: Clc1ccc(COC(Cn2ccnc2)c2ccc(Cl)cc2Cl)cc1 (stereo not drawn) [econazole]
- activity at 20 µM (A549 cells; [11]): 36.2 ± 4.9%
- % Activity, microsomal NO metabolism ([2]; 100 µM): 15.3 ± 0.0%
- IC50 ([2]; Caco-2 microsomes): 10 µM

Compound: Cc1nc2c([nH]1)c(=O)n(C)c(=O)n2Cc1ccco1 [furafylline]
- activity at 10 µM (A549 cells; Homo sapiens, A549, 0.25 h, agent 10 μM, 15 min incubation): 98.2 ± 3.1%

Compound: Cc1c(C)c2c(c(C)c1O)CC[C@@](C)(CCC[C@H](C)CCC[C@H](C)CCCC(C)C)O2 [α-tocopherol]
- % Activity, microsomal NO metabolism ([2]; inhibitor 100 μM): 106.9 ± 3.4%

— US20080008771A1, “Nitric Oxide Dioxygenase Inhibitors” (priority 2004, published 2008)
